Test results published in PubChem BioAssay (NCI).
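Compound exposure: 48 hours, 5 concentrations, 96-well plates. GI50 is the concentration that inhibits growth by half. TGI: concentration producing complete growth inhibition.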

Assays:
Assay in all cases: inhibition of tumour cell growth, NCI panel, 48 h
TK-10 renal = test system: TK-10 renal
M14 melanoma = test system: M14 melanoma
SK-OV-3 ovarian = test system: SK-OV-3 ovarian
LOX IMVI melanoma = test system: LOX IMVI melanoma
BT-549 breast = test system: BT-549 breast
SNB-19 CNS = test system: SNB-19 CNS
RPMI-8226 leukemia = test system: RPMI-8226 leukemia
DU-145 prostate = test system: DU-145 prostate

SMILES | GI50 (TK-10 renal) [µM] | TGI (TK-10 renal) [µM] | GI50 (M14 melanoma) [µM] | TGI (M14 melanoma) [µM] | GI50 (SK-OV-3 ovarian) [µM] | TGI (SK-OV-3 ovarian) [µM] | GI50 (LOX IMVI melanoma) [µM] | TGI (LOX IMVI melanoma) [µM] | GI50 (BT-549 breast) [µM] | TGI (BT-549 breast) [µM] | GI50 (SNB-19 CNS) [µM] | TGI (SNB-19 CNS) [µM] | GI50 (RPMI-8226 leukemia) [µM] | TGI (RPMI-8226 leukemia) [µM] | GI50 (DU-145 prostate) [µM] | TGI (DU-145 prostate) [µM]
CC1(C)N=C(N)N=C(N)N1c1cccc(CCCCc2ccccc2)c1 | 0.704 | 20.3 | 0.657 | 18.6 | 1.98 | 17 | 0.062 | 14.9 | 0.901 | 3.99 | 0.907 | 16.6 | 0.289 | 2.72 | 0.351 | 15
NC(CSc1nc2ccccn2c1[N+](=O)[O-])C(=O)O (centres undefined) | – | > 100 | – | > 100 | – | > 100 | – | – | – | > 100 | – | > 100 | – | > 100 | – | > 100
O=C(Nc1ccccc1)NS(=O)(=O)c1ccc(N2N=C3c4ccccc4CC3C2c2ccccn2)cc1 (centres undefined) | 11.7 | 45.6 | 24.9 | 51.4 | > 100 | > 100 | 15.4 | 34.2 | 30.6 | > 100 | 83.9 | > 100 | 27.1 | > 100 | 36.2 | > 100
OCCNc1ncnc2c1ncn2C1OC(CO)C(O)C1O (centres undefined) | – | > 100 | – | > 100 | – | > 100 | – | > 100 | – | > 100 | – | > 100 | – | > 100 | – | 67.7
COc1cc2ccnc3c2c(c1OC)-c1ccc(=O)ccc1-3 | 35.1 | 83.5 | – | – | 41.5 | > 100 | 21 | 46.5 | 32.1 | > 100 | 55.3 | > 100 | 18.4 | 51.9 | 28.8 | > 100
O=c1oc2ccc(Cl)cc2c(=O)n1-c1cc(C(F)(F)F)cc(C(F)(F)F)c1 | 0.395 | 11 | 0.3 | 1.78 | 0.205 | 2.38 | 0.366 | 2.33 | 0.258 | 0.86 | 0.293 | 11.7 | 0.188 | 0.712 | 0.372 | 13.9
COc1cc2nc(N3CCCC3)nc(Nc3ccccc3)c2cc1OC | 1.88 | 3.37 | 1.83 | 3.56 | 1.99 | 3.72 | 0.201 | 0.479 | 1.69 | 3.25 | 1.65 | 3.14 | 1.07 | 4.3 | 1.62 | 3.07
COc1ccc(-c2cc(-c3cn[nH]c3-c3ccccn3)ccn2)cc1 | > 25 | > 25 | > 25 | > 25 | > 25 | > 25 | > 25 | > 25 | > 25 | > 25 | > 25 | > 25 | > 25 | > 25 | > 25 | > 25
Cc1ccc(N=Nc2c(N)nn(-c3ccccc3)c2N)cc1 | – | > 100 | 1.04 | > 100 | 2.63 | > 100 | 5.78 | > 100 | 0.737 | > 100 | 6.23 | > 100 | 1.61 | 42 | 3.44 | > 100
c1ccc(-c2nnc(Nc3ccc4c(c3)OCCO4)o2)c(NCc2ccncc2)c1 | 1.98 | > 81.8 | 0.0223 | 0.273 | 0.0191 | 0.0856 | 0.0459 | > 100 | 0.0589 | 7.01 | 0.0536 | > 100 | 0.0445 | 7.63 | 0.0363 | 0.566
Cc1ncc(C(=O)Nc2ccc(CN3CCN(C)CC3)c(C(F)(F)F)c2)cc1C#Cc1cnc(N)c2ncccc12 | 0.318 | 2.13 | – | – | 0.341 | 7.2 | – | – | 1.65 | 18.9 | 2.16 | 5.33 | 0.538 | 3.98 | 0.18 | 2.08
O=C(NC(=S)NNC(=S)NNc1ccccc1)c1ccccc1 | 35.4 | > 100 | 7.45 | 55.6 | 44.2 | > 100 | 7.22 | > 100 | 11.3 | > 100 | 13 | > 100 | 3.55 | > 100 | 44.1 | > 100
O=C(O)CCCSc1nc2ccccc2s1 | – | > 100 | – | > 100 | – | > 100 | – | > 100 | – | > 100 | – | > 100 | – | > 100 | – | > 100
ClC1=NC(Cl)C(Cl)=N/C1=N\c1ncn[nH]1 (centres undefined) | 1.92 | 3.44 | 2.64 | 7.15 | 15.5 | 29 | 1.89 | 3.72 | 2.45 | 5.42 | 11.8 | 25.4 | 1.97 | 4.43 | 1.9 | 3.43
N#Cc1cccc(/C=C(/C(=O)c2ccccc2)c2ccccc2)c1 | 5.75 | 19.9 | 4.05 | 20.8 | 5.53 | 20.8 | 2.89 | 10.2 | 4.16 | 15.1 | 5.07 | 19.9 | 2.82 | 9.27 | 3.36 | 10.2
O=C1OC(C2=CC(=O)c3ccccc3C2=O)C(Cl)=C1Cl (centres undefined) | – | > 100 | – | > 100 | – | > 100 | – | 49.9 | – | – | – | > 100 | – | 47.3 | – | > 100
CO/N=C(/COc1c(-c2ccccc2)oc2ccccc2c1=O)c1ccc(OC)cc1 | > 100 | > 100 | > 100 | > 100 | > 100 | > 100 | > 100 | > 100 | > 100 | > 100 | – | – | 41.9 | > 100 | > 100 | > 100
